Experimental findings from ChEMBL document CHEMBL5120965, “Moroidin, a Cyclopeptide from the Seeds of Celosia cristata That Induces Apoptosis in A549 Human Lung Cancer Cells” (J Nat Prod, 2022) are described below.

SMILES strings stand for the structures. Activity calls are given as the source filed them. The rule behind the calls is not given here.

Assay [1] concerns A549. The assay can be described thus: Induction of microtubule depolymerization in human A549 cells assessed as reduction in tubulin protein level at 2.5 uM by Western blot analysis. Set-up: scale not given: the % may be the effect or the level left. The class given is functional. In general terms: A western blot detects proteins with antibodies after separation by electrophoresis.

The subject of assay [2] is A549. The assay can be described thus: Antiproliferative activity against human A549 cells assessed as reduction in cell viability at 0.01 to 100 uM measured after 24 to 72 hrs by MTT assay. The conditions noted are these: dose 0.01-100 µM, time 24-72 hrs. It is filed as functional, cell-based. On the technique in general: Formazan colour is commonly taken as a measure of viable cells.

The test system of assay [3] is A549. The assay is described as follows: Induction of microtubule depolymerization in human A549 cells assessed as occurence of rounded cells at 2.5 uM measured after 48 hrs by DAPI staining based immunofluorescence assay. The class given is functional, cell-based.
In assay [4] the test system is A549. The assay can be described thus: Induction of microtubule depolymerization in human A549 cells assessed as occurence of cell shrinkage at 2.5 uM measured after 48 hrs by DAPI staining based immunofluorescence assay. It is filed as functional.
The subject of assay [5] is A549. The assay can be described thus: Induction of cell apoptosis in human A549 cells assessed as increase in apoptosis rate at 20 uM measured after 48 hrs by annexinV-FITC/propidium iodide staining based flow cytometry analysis (reference value: 3.27%). The class given is functional. In general terms: Flow cytometry measures light scatter and fluorescence of single cells or particles in a stream.

For assay [6], the system named is NCI-H1299. The assay is described as follows: Cytotoxicity against human H1299 cells assessed as reduction in cell viability incubated for 72 hrs by MTT assay. It is filed as functional, cell-based. The conditions noted are these: NCI-H1299, 72 h.
Assay [7] concerns A549. The assay can be described thus: Induction of cell apoptosis in human A549 cells assessed as increase in apoptosis rate at 5 uM measured after 48 hrs by annexinV-FITC/propidium iodide staining based flow cytometry analysis (reference value: 3.27%). It is filed as functional.
The subject of assay [8] is A549. The assay is described as follows: Antiinvasive activity against human A549 cells assessed as reduction in number of invasion cells measured after 48 hrs by transwell assay based microscopic analysis. The conditions noted are these: dose 0.5-2 µM, DDE = dose-dependent effect. The class given is functional, cell-based.
In assay [9] the test system is A549. The assay can be described thus: Antimigratory activity against human A549 cells assessed as migration of cells into scratch area at 0.5 uM measured after 48 hrs by scratch assay based microscopic analysis (reference value: 85.15%). It is filed as functional.
Assay [10] relates to A549. The assay is described as follows: Induction of cell apoptosis in human A549 cells assessed as reduction in AKT expression at 5 to 20 uM measured after 48 hrs by Western blot analysis. The conditions noted are these: dose 5-20 µM. The class given is functional, cell-based.
The test system of assay [11] is A549. The assay is described as follows: Induction of cell cycle arrest in human A549 cells assessed as decrease in ratio of cells at G1 phase measured after 48 hrs by […]propidium iodide staining based flow cytometry analysis. The class given is functional. The note with it: dose 5-20 µM, DDE = dose-dependent effect.
In assay [12] the test system is A549. The assay is described as follows: Induction of cell apoptosis in human A549 cells assessed as increase in Bax expression level at 5 to 20 uM measured after 48 hrs by Western blot analysis. The class given is functional, cell-based. The conditions noted are these: dose 5-20 µM.
Assay [13] has as its system A549. The assay can be described thus: Induction of cell apoptosis in human A549 cells assessed as increase in PARP level measured after 48 hrs by Western blot analysis. The class given is functional, cell-based. The note with it: dose 5-20 µM, DDE = dose-dependent effect.
The test system of assay [14] is A549. The assay is described as follows: Induction of microtubule depolymerization in human A549 cells assessed as fragmentation of microtubule network measured after 48 hrs by DAPI staining based immunofluorescence assay. The conditions noted are these: dose 2.5-5 µM. The class given is functional, cell-based.
The subject of assay [15] is U-251. The assay is described as follows: Cytotoxicity against human U-251 cells assessed as reduction in cell viability incubated for 72 hrs by MTT assay. The class given is functional, cell-based. The conditions noted are these: U-251, 72 h.
For assay [16], the system named is A549. The assay is described as follows: Induction of cell apoptosis in human A549 cells assessed as increase in pro-caspase 3 level measured after 48 hrs by Western blot analysis. It is filed as functional, cell-based. The note with it: dose 5-20 µM, DDE = dose-dependent effect.
In assay [17] the test system is A549. The assay is described as follows: Inhibition of colony formation in human A549 cells up to 20 uM measured after 10 days by crystal violet staining based assay. The class given is functional, cell-based. The conditions noted are these: dose 1.25-20 µM, time 10.0 day, DDE = dose-dependent effect.
For assay [18], the system named is MCF7. The assay is described as follows: Inhibition of colony formation in human MCF7 cells measured after 10 days by crystal violet staining based assay. It is filed as functional, cell-based. The conditions noted are these: dose 1.25-20 µM, time 10.0 day, DDE = dose-dependent effect.
The test system of assay [19] is A549. The assay can be described thus: Induction of cell cycle arrest in human A549 cells assessed as increase in accumulation of cells at G2/M phase at 5 to 20 uM measured after 48 hrs by […]propidium iodide staining based flow cytometry analysis (reference value: 8.33%). The class given is functional. The conditions noted are these: dose 5-20 µM.
For assay [20], the system named is A549. The assay can be described thus: Antimigratory activity against human A549 cells assessed as migration of cells into scratch area at 2 uM measured after 48 hrs by scratch assay based microscopic analysis (reference value: 85.15%). It is filed as functional.
In assay [21] the test system is A549. The assay is described as follows: Induction of cell apoptosis in human A549 cells assessed as increase in Bax/Bcl-2 ratio at 5 to 20 uM measured after 48 hrs by Western blot analysis. It is filed as functional, cell-based. The conditions noted are these: dose 5-20 µM.
Assay [22] deals with A549. The assay is described as follows: Induction of cell apoptosis in human A549 cells assessed as increase in cleaved-caspase 9 level measured after 48 hrs by Western blot analysis. The class given is functional, cell-based. The note with it: dose 5-20 µM, DDE = dose-dependent effect.
The test system of assay [23] is A549. The assay is described as follows: Induction of cell apoptosis in human A549 cells assessed as increase in cleaved-caspase 3 level measured after 48 hrs by Western blot analysis. The class given is functional, cell-based. The note with it: dose 5-20 µM, DDE = dose-dependent effect.
The test system of assay [24] is A549. The assay is described as follows: Induction of cell apoptosis in human A549 cells assessed as increase in pro-caspase 9 level measured after 48 hrs by Western blot analysis. The class given is functional, cell-based. The note with it: dose 5-20 µM, DDE = dose-dependent effect.
The test system of assay [25] is A549. The assay can be described thus: Induction of cell apoptosis in human A549 cells assessed as increase in apoptosis rate at 10 uM measured after 48 hrs by annexinV-FITC/propidium iodide staining based flow cytometry analysis (reference value: 3.27%). The class given is functional.
For assay [26], the system named is A549. The assay is described as follows: Cytotoxicity against human A549 cells assessed as reduction in cell viability incubated for 72 hrs by MTT assay. The class given is functional, cell-based. The note with it: A549, 72 h.
The subject of assay [27] is HCT-116. The assay is described as follows: Cytotoxicity against human HCT-116 cells assessed as reduction in cell viability incubated for 72 hrs by MTT assay. The class given is functional, cell-based. The conditions noted are these: HCT-116, 72 h.
Assay [28] deals with U-87 MG. The assay can be described thus: Cytotoxicity against human U87 cells assessed as reduction in cell viability incubated for 72 hrs by MTT assay. It is filed as functional, cell-based, U-87MG ATCC.
The test system of assay [29] is A549. The assay can be described thus: Antimigratory activity against human A549 cells assessed as migration of cells into scratch area at 1 uM measured after 48 hrs by scratch assay based microscopic analysis (reference value: 85.15%). It is filed as functional.
The test system of assay [30] is A549. The assay can be described thus: Induction of cell apoptosis in human A549 cells assessed as decrease in Bcl-2 expression level at 5 to 20 uM measured after 48 hrs by Western blot analysis. The note with it: dose 5-20 µM. It is filed as functional, cell-based.
The subject of assay [31] is A549. The assay is described as follows: Induction of cell apoptosis in human A549 cells assessed as reduction in AKT phosphorylation at 5 to 20 uM measured after 48 hrs by Western blot analysis. The class given is functional, cell-based. The conditions noted are these: dose 5-20 µM.
Assay [32] relates to A549. The assay can be described thus: Antimigratory activity against human A549 cells assessed as reduction in number of migrated cells measured after 48 hrs by transwell assay based microscopic analysis. It is filed as functional, cell-based. The note with it: dose 0.5-2 µM, DDE = dose-dependent effect.
The test system of assay [33] is A549. The assay can be described thus: Induction of cell apoptosis in human A549 cells assessed as increase in cleaved PARP level measured after 48 hrs by Western blot analysis. The conditions noted are these: dose 5-20 µM, DDE = dose-dependent effect. The class given is functional, cell-based.
The subject of assay [34] is A549. The assay can be described thus: Induction of microtubule depolymerization in human A549 cells assessed as reduction in microtubule network measured after 48 hrs by DAPI staining based immunofluorescence assay. It is filed as functional, cell-based. The conditions noted are these: dose 2.5-5 µM.
Assay [35] has as its system MCF7. The assay can be described thus: Cytotoxicity against human MCF7 cells assessed as reduction in cell viability incubated for 72 hrs by MTT assay. The class given is functional, cell-based. The conditions noted are these: MCF7, 72 h.

In the case of `COc1cc2c(c(OC)c1OC)-c1ccc(OC)c(=O)cc1[C@@H](NC(C)=O)CC2` [COLCHICINE], the Activity in [1] stood at 63%. The outcome in assay [2], in assay [3] and in [4] was Active.

One may read the IC50 as the midpoint of a concentration-inhibition curve. With `CC(C)C[C@@H]1NC(=O)[C@@H](NC(=O)[C@@H]2CCC(=O)N2)[C@H](C(C)C)c2ccc3c4c([nH]c3c2)-n2cnc(c2)C[C@@H](C(=O)O)NC(=O)CNC(=O)[C@H](CCCNC(=N)N)NC(=O)[C@H](C4)NC(=O)[C@H](C(C)C)NC1=O`, the Activity is 20.62% in assay [5]; 20% in assay [1]; 6.14% in assay [7]; “Dde” in assay [8]; 60.84% in assay [9]; “Dde” in assay [11]. Also, the Activity result in assay [13] is “Dde”; in assay [16], “Dde”; in [19] it was 36.35%; in [20] it was 21.92%; in assay [22] it was “Dde”; in assay [23], “Dde”. For the same compound, the Activity entry in assay [24] is “Dde”; in assay [25], 11.4%; in [29], 40.22%; in assay [32], “Dde”; in assay [33], “Dde”. The 50% inhibitory concentration (IC50) in assay [6] is 8.3 µM; in assay [15], 5.2 µM; in assay [26], 3.2 µM; in [27] it was 9.9 µM; in assay [28], 9.6 µM; in [35], > 10 µM. Besides, the outcome in [10], in assay [12], in assay [14], in assay [21], in [30] and in assay [31] was Active. Besides, the result in assay [34] was Active. For the same compound, the inhibition entry in assay [17] and in [18] was “Dde” throughout.
